# Calls of active or inactive are those of the source.
# How the values were obtained:
# [1] = molecular target: T1, Serine/threonine-protein phosphatase (Candida dubliniensis (strain CD36 / CBS 7987 / NCPF 3949 / NRRLY-17841) (Yeast), UniProt B9W6M3); assay: blockers of CaCl2-induced CDRE-lacZ signaling – S. cerevisiae, luminescence, secondary, dose response (AID 2388); type: functional, cell-based;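 note: yeast reporter cells carrying a calcineurin-responsive lacZ construct stimulated with calcium chloride; luminescent beta-galactosidase reporter signal in whole cells rather than isolated phosphatase activity; potency for inhibition where a drop in reporter signal means calcineurin blockade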
# T1 sequence (B9W6M3 whole entry): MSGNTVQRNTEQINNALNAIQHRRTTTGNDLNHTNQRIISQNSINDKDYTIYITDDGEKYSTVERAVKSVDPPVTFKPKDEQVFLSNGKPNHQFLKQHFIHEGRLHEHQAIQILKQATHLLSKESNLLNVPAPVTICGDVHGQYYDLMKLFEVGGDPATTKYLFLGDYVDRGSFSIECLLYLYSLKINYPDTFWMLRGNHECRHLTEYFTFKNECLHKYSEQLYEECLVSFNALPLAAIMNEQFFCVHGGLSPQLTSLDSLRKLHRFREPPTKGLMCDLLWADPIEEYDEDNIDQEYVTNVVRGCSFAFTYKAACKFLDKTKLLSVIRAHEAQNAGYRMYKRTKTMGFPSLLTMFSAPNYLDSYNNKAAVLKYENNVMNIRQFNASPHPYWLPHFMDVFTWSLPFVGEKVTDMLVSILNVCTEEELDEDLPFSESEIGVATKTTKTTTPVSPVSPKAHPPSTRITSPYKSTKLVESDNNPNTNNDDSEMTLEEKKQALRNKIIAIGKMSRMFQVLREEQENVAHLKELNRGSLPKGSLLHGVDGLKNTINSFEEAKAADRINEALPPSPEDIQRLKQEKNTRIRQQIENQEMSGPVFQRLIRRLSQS
# [2] = Counterscreen for AddAB inhibitors: absorbance-based bacterial cell-based high throughput dose response assay for inhibitors of bacterial viability. [Related pubchem assays (depositor defined):AID435030, AID449728, AID449731, AID488942, AID488955, AID488956]; type: functional
# [3] = molecular target: ATP-dependent molecular chaperone HSP82 (Candida albicans (strain WO-1) (Yeast), UniProt C4YTQ8); assay: steroid-induced GRE reporter decrease in yeast – S. cerevisiae, luminescence, Hsp90 inhibitor project, dose response (AID 2400); type: functional, cell-based;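 note: beta-galactosidase luminescence from glucocorticoid response element reporter as proxy for Hsp90 function; inhibitor potency where signal loss means Hsp90 inhibition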
# BJ = assay: cells; type: functional, cell-based; details: Homo sapiens
# [4] = activation of miR-122 Renilla sensor silencing – cell-based, Huh7 psiCHECK-miR122, Renilla luciferase, cherry-picked, dose response (AID 651956); type: functional;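 note: huh7 hepatoma cells stably carrying a psiCHECK-2 miR-122 sensor plasmid; renilla luciferase signal reporting endogenous miR-122 activity after 48 h compound exposure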
# [5] = general mammalian cell viability loss – activator set, cherry-pick, cytotoxicity control for miR-122 modulator project, dose response (AID 720690); type: functional, cell-based;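 note: HEK293T human cells scored for general mammalian cytotoxicity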
# [6] = molecular target: T2, DNA repair protein RAD52 homolog (Homo sapiens, UniProt P43351); type: functional, biochemical
# T2 sequence (P43351 whole entry): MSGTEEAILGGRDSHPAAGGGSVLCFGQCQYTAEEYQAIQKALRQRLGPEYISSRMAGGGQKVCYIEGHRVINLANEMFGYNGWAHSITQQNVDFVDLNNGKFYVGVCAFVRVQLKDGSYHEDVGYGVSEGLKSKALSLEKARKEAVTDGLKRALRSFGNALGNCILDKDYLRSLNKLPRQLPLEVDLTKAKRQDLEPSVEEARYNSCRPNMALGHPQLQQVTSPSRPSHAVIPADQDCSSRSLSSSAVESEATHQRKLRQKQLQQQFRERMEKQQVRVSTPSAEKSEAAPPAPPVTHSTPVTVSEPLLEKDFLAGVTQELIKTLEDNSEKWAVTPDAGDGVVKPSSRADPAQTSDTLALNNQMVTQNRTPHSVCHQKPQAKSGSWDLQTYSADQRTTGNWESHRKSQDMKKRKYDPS
# [7] = molecular target: Cell division cycle 7-related protein kinase (Homo sapiens, UniProt O00311); type: functional;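 note: value obtained from a kinome-wide kinase panel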
# [8] = molecular target: Calcium/calmodulin-dependent protein kinase type II subunit delta (Homo sapiens, UniProt Q13557); type: functional
# Misshapen-like kinase 1 = Misshapen-like kinase 1 (Homo sapiens, UniProt Q8N4C8); type: functional;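 note: kinome panel screen with MINK as the panel member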
# [9] = molecular target: Platelet-derived growth factor receptor beta (Homo sapiens, UniProt P09619); type: functional;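 note: value comes from a kinome panel, with PDGFRB tested as one panel member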
# [10] = molecular target: T3, Mannose-6-phosphate isomerase (Homo sapiens, UniProt P34949); assay: MPI enzyme activity inhibition – biochemical, fluorescence intensity, coupled assay, primary screen (AID 1209)
# T3 sequence (P34949 whole entry): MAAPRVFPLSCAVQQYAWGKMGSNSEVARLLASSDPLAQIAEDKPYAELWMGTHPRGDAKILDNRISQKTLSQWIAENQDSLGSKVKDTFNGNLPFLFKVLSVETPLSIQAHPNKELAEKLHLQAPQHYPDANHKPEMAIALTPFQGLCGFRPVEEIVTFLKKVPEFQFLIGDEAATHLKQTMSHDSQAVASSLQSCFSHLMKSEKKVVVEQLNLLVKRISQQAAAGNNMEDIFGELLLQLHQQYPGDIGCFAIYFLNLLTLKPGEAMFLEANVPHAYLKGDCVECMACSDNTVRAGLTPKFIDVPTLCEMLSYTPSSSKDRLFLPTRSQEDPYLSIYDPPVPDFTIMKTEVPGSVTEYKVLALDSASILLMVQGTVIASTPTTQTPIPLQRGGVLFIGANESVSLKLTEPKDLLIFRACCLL
# [11] = molecular target: T3, Mannose-6-phosphate isomerase; assay: MPI inhibition at elevated mannose 6-phosphate – biochemical, fluorescence intensity, high mannose 6-phosphate, primary screen (AID 1220)
# Sequence of Calcium/calmodulin-dependent protein kinase type II subunit delta (Q13557 whole entry): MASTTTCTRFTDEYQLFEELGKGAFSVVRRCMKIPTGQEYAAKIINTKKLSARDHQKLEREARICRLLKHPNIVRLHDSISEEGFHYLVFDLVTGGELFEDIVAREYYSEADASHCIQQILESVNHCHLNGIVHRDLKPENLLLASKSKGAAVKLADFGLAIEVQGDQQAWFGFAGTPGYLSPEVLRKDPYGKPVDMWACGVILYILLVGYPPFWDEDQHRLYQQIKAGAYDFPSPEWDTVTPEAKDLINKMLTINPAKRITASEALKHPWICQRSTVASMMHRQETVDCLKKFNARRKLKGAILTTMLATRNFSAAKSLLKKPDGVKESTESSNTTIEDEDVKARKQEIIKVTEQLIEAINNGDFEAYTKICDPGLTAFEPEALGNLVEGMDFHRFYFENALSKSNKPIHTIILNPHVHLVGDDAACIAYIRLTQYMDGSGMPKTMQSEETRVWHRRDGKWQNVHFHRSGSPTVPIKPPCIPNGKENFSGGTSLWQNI
# Sequence of Cell division cycle 7-related protein kinase (O00311 whole entry): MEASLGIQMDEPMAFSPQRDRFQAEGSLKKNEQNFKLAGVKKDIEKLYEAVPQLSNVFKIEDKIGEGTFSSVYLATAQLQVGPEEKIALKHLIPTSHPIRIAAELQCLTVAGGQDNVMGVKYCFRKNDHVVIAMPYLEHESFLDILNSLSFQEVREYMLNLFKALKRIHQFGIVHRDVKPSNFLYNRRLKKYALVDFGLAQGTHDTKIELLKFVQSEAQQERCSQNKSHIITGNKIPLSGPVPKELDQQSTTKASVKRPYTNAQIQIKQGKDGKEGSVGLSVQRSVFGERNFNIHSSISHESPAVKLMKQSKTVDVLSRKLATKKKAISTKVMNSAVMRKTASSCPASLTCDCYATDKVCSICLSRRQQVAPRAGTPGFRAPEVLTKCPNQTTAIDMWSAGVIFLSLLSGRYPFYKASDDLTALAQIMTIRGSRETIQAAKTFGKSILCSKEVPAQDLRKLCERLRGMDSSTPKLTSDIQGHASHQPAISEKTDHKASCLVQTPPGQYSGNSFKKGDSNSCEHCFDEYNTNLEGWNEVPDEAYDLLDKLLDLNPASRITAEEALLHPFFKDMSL
# Sequence of Misshapen-like kinase 1 (Q8N4C8 whole entry): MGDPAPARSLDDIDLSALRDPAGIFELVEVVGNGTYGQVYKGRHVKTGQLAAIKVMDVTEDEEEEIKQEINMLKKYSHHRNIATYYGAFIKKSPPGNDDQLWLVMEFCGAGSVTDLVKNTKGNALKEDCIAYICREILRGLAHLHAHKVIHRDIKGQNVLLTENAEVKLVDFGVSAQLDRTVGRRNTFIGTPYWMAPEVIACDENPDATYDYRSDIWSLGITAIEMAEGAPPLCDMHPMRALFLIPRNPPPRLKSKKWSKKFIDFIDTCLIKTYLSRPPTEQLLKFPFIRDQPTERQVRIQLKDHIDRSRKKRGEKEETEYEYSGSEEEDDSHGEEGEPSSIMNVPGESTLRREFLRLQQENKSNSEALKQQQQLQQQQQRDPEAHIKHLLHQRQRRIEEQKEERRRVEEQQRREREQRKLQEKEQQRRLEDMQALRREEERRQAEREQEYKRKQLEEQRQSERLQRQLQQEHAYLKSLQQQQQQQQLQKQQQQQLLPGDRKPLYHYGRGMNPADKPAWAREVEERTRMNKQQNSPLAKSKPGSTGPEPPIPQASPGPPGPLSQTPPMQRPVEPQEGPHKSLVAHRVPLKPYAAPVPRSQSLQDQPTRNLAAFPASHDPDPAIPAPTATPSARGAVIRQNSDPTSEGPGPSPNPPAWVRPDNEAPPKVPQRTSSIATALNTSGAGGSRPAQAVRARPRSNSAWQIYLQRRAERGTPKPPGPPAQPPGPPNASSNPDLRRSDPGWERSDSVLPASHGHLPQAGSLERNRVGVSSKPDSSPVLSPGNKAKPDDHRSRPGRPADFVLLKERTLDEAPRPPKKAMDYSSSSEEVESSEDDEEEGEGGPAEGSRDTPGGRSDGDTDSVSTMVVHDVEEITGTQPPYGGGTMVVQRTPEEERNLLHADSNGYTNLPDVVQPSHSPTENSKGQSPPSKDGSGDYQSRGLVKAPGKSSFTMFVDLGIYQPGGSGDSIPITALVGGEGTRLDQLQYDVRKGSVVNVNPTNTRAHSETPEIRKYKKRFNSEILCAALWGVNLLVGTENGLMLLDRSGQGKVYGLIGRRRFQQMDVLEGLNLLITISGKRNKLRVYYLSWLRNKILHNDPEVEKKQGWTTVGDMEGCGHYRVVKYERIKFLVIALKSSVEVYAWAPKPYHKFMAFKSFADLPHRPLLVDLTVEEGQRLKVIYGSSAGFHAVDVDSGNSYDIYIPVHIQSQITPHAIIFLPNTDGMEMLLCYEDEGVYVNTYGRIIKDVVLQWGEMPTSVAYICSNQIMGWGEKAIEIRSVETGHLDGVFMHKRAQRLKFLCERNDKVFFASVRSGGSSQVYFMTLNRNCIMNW
# Sequence of ATP-dependent molecular chaperone HSP82 (C4YTQ8 whole entry): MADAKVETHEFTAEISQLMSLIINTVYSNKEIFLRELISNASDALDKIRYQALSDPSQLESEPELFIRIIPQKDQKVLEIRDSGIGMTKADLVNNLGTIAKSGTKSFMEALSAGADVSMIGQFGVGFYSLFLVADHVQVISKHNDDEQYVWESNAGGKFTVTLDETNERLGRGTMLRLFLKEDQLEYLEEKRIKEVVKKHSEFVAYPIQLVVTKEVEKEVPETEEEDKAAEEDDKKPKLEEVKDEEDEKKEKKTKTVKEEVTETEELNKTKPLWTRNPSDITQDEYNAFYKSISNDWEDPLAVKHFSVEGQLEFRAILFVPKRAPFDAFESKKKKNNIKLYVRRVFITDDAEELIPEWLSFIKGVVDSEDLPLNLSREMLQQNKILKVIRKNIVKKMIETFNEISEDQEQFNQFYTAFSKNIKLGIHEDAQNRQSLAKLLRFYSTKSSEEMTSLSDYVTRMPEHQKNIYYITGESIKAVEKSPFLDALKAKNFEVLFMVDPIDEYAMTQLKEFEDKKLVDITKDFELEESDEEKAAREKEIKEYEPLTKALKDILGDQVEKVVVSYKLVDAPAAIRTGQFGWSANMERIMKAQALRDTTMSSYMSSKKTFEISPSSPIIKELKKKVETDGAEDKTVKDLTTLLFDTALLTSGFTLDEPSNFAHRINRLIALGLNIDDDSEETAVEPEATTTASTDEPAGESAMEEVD
# Sequence of Platelet-derived growth factor receptor beta (P09619 whole entry): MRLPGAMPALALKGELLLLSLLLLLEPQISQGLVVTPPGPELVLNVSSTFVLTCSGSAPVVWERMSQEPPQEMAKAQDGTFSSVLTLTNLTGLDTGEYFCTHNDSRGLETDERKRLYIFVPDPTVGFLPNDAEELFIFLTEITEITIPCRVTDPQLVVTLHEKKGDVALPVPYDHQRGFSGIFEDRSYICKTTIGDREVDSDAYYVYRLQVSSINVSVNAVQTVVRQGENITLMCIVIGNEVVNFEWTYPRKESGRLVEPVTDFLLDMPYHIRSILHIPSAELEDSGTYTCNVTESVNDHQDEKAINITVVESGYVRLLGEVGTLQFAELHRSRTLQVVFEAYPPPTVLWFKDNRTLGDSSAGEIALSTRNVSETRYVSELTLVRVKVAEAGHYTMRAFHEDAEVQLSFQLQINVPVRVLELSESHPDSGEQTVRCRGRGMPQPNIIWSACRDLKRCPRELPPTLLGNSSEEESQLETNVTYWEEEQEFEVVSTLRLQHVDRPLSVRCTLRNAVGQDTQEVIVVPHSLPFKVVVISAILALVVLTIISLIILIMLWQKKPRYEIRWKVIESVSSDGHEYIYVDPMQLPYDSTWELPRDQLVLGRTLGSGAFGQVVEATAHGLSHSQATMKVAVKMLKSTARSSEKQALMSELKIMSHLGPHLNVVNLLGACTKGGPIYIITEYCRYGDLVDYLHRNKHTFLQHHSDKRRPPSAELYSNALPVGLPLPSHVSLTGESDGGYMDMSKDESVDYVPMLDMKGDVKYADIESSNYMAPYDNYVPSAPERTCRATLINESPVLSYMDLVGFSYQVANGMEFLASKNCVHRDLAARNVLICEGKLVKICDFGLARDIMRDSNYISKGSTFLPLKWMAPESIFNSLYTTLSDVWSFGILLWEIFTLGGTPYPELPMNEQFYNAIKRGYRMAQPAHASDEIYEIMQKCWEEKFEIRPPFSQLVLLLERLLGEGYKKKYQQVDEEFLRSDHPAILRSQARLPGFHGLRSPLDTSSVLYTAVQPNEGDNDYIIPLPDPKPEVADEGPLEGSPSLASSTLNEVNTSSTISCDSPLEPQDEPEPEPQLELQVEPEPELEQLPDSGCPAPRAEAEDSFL
structure (smiles),measurement,setting,value
CC(C)CC(=O)NC(c1cccs1)c1ccc2cccnc2c1O (stereo unspecified),EC50,[1],> 180 µM (inactive)
same,IC50,[2],> 119 µM (inactive)
same,EC50,[3],> 150 µM (inactive)
OC(CNCCC1C=Nc2ccccc21)Cn1c2ccc(Cl)cc2c2cc(Cl)ccc21 (stereo unspecified),EC50,BJ,> 75 µM (not active)
same,AC50,[4],12.8 µM (active)
same,AC50,[5],6.52 µM (active)
CCCCCCCCCCCCCCCC[N+](C)(C)C,AC50,[6],8.73 µM (active)
NC1CCC(Nc2nc(Cl)cc(-c3c[nH]c4ncccc34)n2)CC1 (stereo unspecified),Ki,[7],0.000316 µM (active)
same,pKi,[7],9.5
same,Ki,[8],0.251 µM (active)
same,pKi,[8],6.6
same,Ki,Misshapen-like kinase 1,0.02 µM (active)
same,pKi,Misshapen-like kinase 1,7.7
O=C(O)C1CN(Cc2ccc(OCc3ccccc3)cc2Cl)C1,Ki,[9],> 2 µM (inactive)
Cc1ccccc1-c1cc2c(nn1)-c1ccccc1C2=O,IC50,[10],> 50 µM (not active)
same,IC50,[11],> 50 µM (not active)

# From ChEMBL document CHEMBL1201862, “PubChem BioAssay data set” (2004)
